Test results taken from US20210330611A1, “THERAPY FOR NEUROLOGICAL DISEASES/DISORDERS” (priority 2020, published 2021).
Counter-ions that a name gives are not always drawn. Like-named read-outs stand apart in the source and are kept apart here.

Assays:
[1] = test system: fibrin- and LPS-induced microglia activation; assay: cells; format: cell-based, rat; settings: for inhibition at 10 µM: Rattus norvegicus, Microglia
in vitro [2] = settings: rat, Cell Toxicity IC50 (uM) [cFib assay]
primary rat microglia [3] = settings: rat
[4] = test system: LPS-induced microglia activation; assay: Image-based assay of LPS-induced microglia activation (HTS and dose response); format: cell-based, rat; settings: Rattus norvegicus, Microglia; for inhibition at 10 µM: primary microglia HTS, LPS stimulation, increased cell size (>800 μm^2) as marker of activation, read-out: LPS % inhibition
primary rat microglia [5] = settings: rat; remark: listed apart in the source
primary rat microglia [6] = assay: Cell toxicity (dead cells, size <150 μm2) in LPS assay; settings: read-out: Cell Toxicity IC50 (uM) [LPS assay]; LPS assay
[7] = test system: fibrin-induced microglia activation; assay: Image-based assay of fibrin-induced microglia activation (HTS and dose response); format: cell-based, rat; settings: for IC50 / inhibition at 10 µM: Rattus norvegicus, Microglia; for inhibition at 10 µM: primary microglia HTS, fibrin stimulation, increased cell size (>800 μm^2) as marker of activation, read-out: Fibrin % inhibition
in vitro [8] = settings: rat
intracellular GSH = format: cell-based, mouse
Procedure: Real-time imaging of glutathione. The real-time GSH dynamics in living BMDMs was determined with the fluorescent GSH probe, RealThiol RT-AM as described (37). Cells were plated on 2-well chamber slide (Nunc) pre-coated with 25 μg/ml fibrin. Cells were stimulated with fibrin with or without 5 μM acivicin or GGsTop. The GSH synthesis inhibitor, buthionine sulfoximine (BSO, Sigma-Aldrich) was used as positive control for reducing intracellular GSH levels at 100 μM. After 24 h incubation, cells were loaded with 1 μM RT-AM probe and were incubated for 5 min before imaging. The cells were kept at 37° C. during the entire experiment. […] For each independent experiment, laser power and detector settings were set using the control/untreated cells incubated with RT-AM alone as reference. All settings were kept constant throughout the experiment. […] The ratio calculated for each treatment was expressed as percentage from that of the untreated cells (control).

human macrophages = assay: ROS production (DHE) in fibrin-stimulated human macrophages; format: cell-based; settings: fibrin 24 h, 5 μM inhibitor, FIG. 6b
Procedure: Human macrophage cultures. Human peripheral blood mononuclear cells (PBMCs) were purchased from AllCells, LLC (Alameda, Calif.). To differentiate PBMC into monocyte-derived macrophages, 2×10^6 PBMC/mL were plated in RPMI-1640 media supplemented with 10% FBS, 1% penicillin-streptomycin (Corning), and 50 ng/ml human M-CSF (300-25, Peprotech) in tissue-culture treated dishes (Corning). After 24 h, non-adherent cells were removed, and adherent cells were cultivated for 7-8 additional days at 37° C. in 5% CO2 to promote their full differentiation into macrophages. Oxidant detection with DHE. Intracellular concentrations of ROS were measured using dihydroethidium (DHE) as described (9). Cultured BMDMs or human macrophages were incubated in medium containing 5 μM DHE (Invitrogen) for 30 min Cells were plated on 96-well, black μ-clear-bottom microtiter plates (Greiner Bio-One) pre-coated with 25 μg/ml fibrin. For GGT inhibition, BMDMs or human macrophages were pre-incubated with 5 μM acivicin or GGsTop for 1 h, and the cells were plated on fibrin-coated 96-well plates as described above. PBS was used as vehicle control. Cells were then incubated for 24-48 h and fixed with 4% PFA for 10 min. The DHE fluorescence was detected at an excitation/emission wavelength of 518 nm/605 nm using a SpectraMax M5 microplate reader (Molecular Devices) with SoftMax Pro 5.2 software (Phoenix Technologies Ltd.).

mouse BMDMs = assay: ROS production (DHE) in fibrin-stimulated mouse BMDMs; format: cell-based; settings: fibrin 24 h, 5 μM inhibitor, FIG. 6b
Procedure: Bone marrow—derived macrophage cultures. […]. In brief, bone-marrow cells were isolated from tibia and femur of C57BL/6 mice, Ggt1^+/+ mice or Ggt1^dwg/dwg mice and cultured in RPMI-1640 medium supplemented with 10% FBS, 1% penicillin-streptomycin (Corning), and 10 ng/ml murine M-CSF (14-8983-80, Thermo Fisher Scientific). On days 6-7, adherent BMDMs were harvested by adding PBS with 5 mM EDTA to the plates and used for assays.
Human macrophage cultures. Human peripheral blood mononuclear cells (PBMCs) were purchased from AllCells, LLC (Alameda, Calif.). To differentiate PBMC into monocyte-derived macrophages, 2×10^6 PBMC/mL were plated in RPMI-1640 media supplemented with 10% FBS, 1% penicillin-streptomycin (Corning), and 50 ng/ml human M-CSF (300-25, Peprotech) in tissue-culture treated dishes (Corning). After 24 h, non-adherent cells were removed, and adherent cells were cultivated for 7-8 additional days at 37° C. in 5% CO2 to promote their full differentiation into macrophages. Oxidant detection with DHE. Intracellular concentrations of ROS were measured using dihydroethidium (DHE) as described (9). […] The DHE fluorescence was detected at an excitation/emission wavelength of 518 nm/605 nm using a SpectraMax M5 microplate reader (Molecular Devices) with SoftMax Pro 5.2 software (Phoenix Technologies Ltd.).

renal reperfusion injury = settings: cited from earlier work
GGT = target: T1, GGT (Mus musculus, UniProt Q60928); assay: GGT activity assay in fibrin-stimulated BMDMs (enzymatic kit, ProteoGREEN-gGlu probe); format: cell-based; settings: FIG. 6c, FIG. 13A, B
T1 construct: GGT activity in BMDMs left unstimulated or stimulated with fibrin after acivicin or vehicle control treatment; endogenous in cells; host or cells: mouse bone marrow-derived macrophages (BMDMs), fibrin-stimulated
Procedure: GGT activity assay. GGT activity was measured using the MaxDiscovery gamma-Glutamyl Transferase (GGT) Enzymatic Assay Kit (Bioo Scientific) according to the manufacturer's protocol. […]. For in vivo GGT activity assay, spinal cord tissues from the onset of MOG35-55 EAE or LPS-injected substantia nigra area at 12 h were prepared. Tissues were homogenized in 0.1 M Tris-HCl and centrifuged at 13,000 g for 30 min at 4° C. The supernatant was collected and subsequently assessed for GGT activity. The absorbance at 405 nm was detected with a SpectraMax M5 microplate reader (Molecular Devices) with SoftMax Pro 5.2 software (Phoenix Technologies Ltd.). The GGT activity in IU/1 was calculated following the manufacturer's protocol by multiplying the average increase in absorbance at 405 nm over 10 min GGT activity was also measured using a fluorescent probe, ProteoGREEN-gGlu (Goryo Chemical, Hokkaido, Japan), according to the manufacturer's protocol. Cultured BMDMs were plated on 96-well, black μ-clear-bottom microtiter plates (Greiner Bio-One) pre-coated with 25 μg/ml fibrin. […] The fluorescence intensity (excitation/emission filter pairs of 488 nm/520 nm) was measured using a SpectraMax M5 microplate reader (Molecular Devices) with SoftMax Pro 5.2 software (Phoenix Technologies).

MOG35-55 EAE = assay: Active MOG35-55 EAE, clinical scores; format: in vivo, mouse; settings: prophylactic, 5 mg/kg i.p. daily from day 0, FIG. 14B
[9] = HTS of 1907 compounds, quadrant by fibrin and LPS inhibition
[10] = Table 3, read-out: Cherry-picked Hit (Suppl. Table 7)
[11] = HTS hit classification, read-out: Hit
[12] = quadrant by fibrin and LPS inhibition in HTS of 1907 compounds
[13] = 48 h, Table 1, dose response 0.001-20 μM, triplicates, primary rat microglia, 48 h, read-out: LPS IC50
[14] = LPS-induced microglia activation, dose response, read-out: LPS IC50 (uM) (Suppl. Table 7)
[15] = Table 3, read-out: LPS IC50 (uM) (Suppl. Table 7)
[16] = dose response, LPS-induced microglia activation, read-out: LPS IC50
[17] = 48 h, Table 1, dose response 0.001-20 μM, triplicates, primary rat microglia, 48 h, read-out: Fibrin IC50
[18] = Table 3, read-out: Fibrin IC50 (uM) (Suppl. Table 7)
[19] = dose response, fibrin-induced microglia activation, read-out: Fibrin IC50
[20] = fibrin-induced microglia activation, dose response, read-out: Fibrin IC50 (uM) (Suppl. Table 7)
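Throughout, for Fibrin % cell toxicity: share of dead cells sized under 150 µm2 at 10 µM in fibrin-stimulated microglia HTS.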

T1 sequence (Q60928 380-568): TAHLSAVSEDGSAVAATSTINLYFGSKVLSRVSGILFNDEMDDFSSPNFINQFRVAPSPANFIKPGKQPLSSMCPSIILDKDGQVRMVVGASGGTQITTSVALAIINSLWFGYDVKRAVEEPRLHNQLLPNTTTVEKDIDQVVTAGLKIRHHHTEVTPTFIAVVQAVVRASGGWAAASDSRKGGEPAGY
T1 sequence (Q60928 1-379): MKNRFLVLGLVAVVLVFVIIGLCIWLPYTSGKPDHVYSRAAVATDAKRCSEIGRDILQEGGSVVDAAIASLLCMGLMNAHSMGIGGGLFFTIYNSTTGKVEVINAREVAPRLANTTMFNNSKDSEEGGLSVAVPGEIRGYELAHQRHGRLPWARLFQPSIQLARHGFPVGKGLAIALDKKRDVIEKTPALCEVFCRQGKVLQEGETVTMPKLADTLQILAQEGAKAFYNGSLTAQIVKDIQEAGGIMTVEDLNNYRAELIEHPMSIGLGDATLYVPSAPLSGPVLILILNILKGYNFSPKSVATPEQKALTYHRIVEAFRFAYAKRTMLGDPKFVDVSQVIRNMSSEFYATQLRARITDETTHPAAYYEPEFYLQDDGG

Row | SMILES | Quadrant (FIG. 5b) [1, 9] | inhibition at 10 µM [1, 10] | inhibition at 10 µM [1, 11] | Quadrant (FIG. 5b) ([1]; Table 1, screen at 10 μM) | Quadrant (FIG. 5b) ([1]; Table 3, screen at 10 μM) | Quadrant (FIG. 5b) [1, 12] | IC50 (in vitro [2]; Table 3) | IC50 (in vitro [2]; cFib assay) | Fibrin % cell toxicity (primary rat microglia [3]) | IC50 [4, 13] | inhibition at 10 µM ([4]; 48 h) | IC50 [4, 14] | IC50 [4, 15] | IC50 [4, 16] | LPS % cell toxicity (primary rat microglia [5]) | IC50 (primary rat microglia [6]) | Fibrin Selectivity [7] | Fibrin Selectivity (LOG10) [7] | IC50 [7, 17] | IC50 [7, 18] | further results
1 | CC[C@]1(O)C[C@@H]2CN(CCc3c([nH]c4ccccc34)[C@@](C(=O)OC)(c3cc4c(cc3OC)N(C)[C@H]3[C@@](O)(C(=O)OC)[C@H](OC(C)=O)[C@]5(CC)C=CCN6CC[C@]43[C@@H]65)C2)C1 [Vinblastine sulfate, reference compound] | Q2 | > 50% | > 50% | Q2 | Q2 | Q2 | > 20 µM | > 20 µM | 2% | 0.2 µM | 108% | 0.2 µM | 0.2 µM | 0.2 µM | 8% | > 20 µM | 11 | 1.05 | 0.02 µM | 0.02 µM | Quadrant (FIG. 5b) ([1]; Table 2, screen at 10 μM): Q2; Activity ([1]; Table 7, fib = fibrin, LPS, tox = toxicity): fib/LPS; IC50 ([4]; Table 7, read-out: LPS_IC50): 0.628 µM; IC50 ([7]; Table 7, read-out: fib_IC50): 1.39 µM; IC50 [7, 19]: 0.02 µM; IC50 [7, 20]: 0.02 µM; inhibition at 10 µM [7]: 106%; IC50 (in vitro [8]): > 20000 nM
2 | COP(=O)(CCC(N)C(=O)O)Oc1cccc(CC(=O)O)c1 (centres unmarked) [GGsTop] | – | – | – | – | – | – | – | – | – | – | – | – | – | – | – | – | – | – | – | – | fibrin-induced degradation of glutathione (RealThiol F405/F488) (intracellular GSH): inhibited; ROS generation (DHE) in human macrophages (human macrophages): inhibited; ROS generation (DHE) in mouse macrophages (mouse BMDMs): inhibited; oxidative stress markers (renal reperfusion injury): reduced; renal reperfusion injury (renal reperfusion injury): protected; fibrin-induced GGT activity in BMDMs (GGT): inhibited; neurologic signs (MOG35-55 EAE): reduced
3 | O=C(NC(Cc1cc(=O)[nH]c2ccccc12)C(=O)O)c1ccc(Cl)cc1 (centres unmarked) [Rebamipide, reference compound] | Q2 | > 50% | > 50% | Q2 | Q2 | Q2 | > 20 µM | > 20 µM | 1% | 11 µM | 72% | 11 µM | 11 µM | 11 µM | 2% | > 20 µM | 6 | 0.80 | 2 µM | 2 µM | IC50 [7, 19]: 2 µM; IC50 [7, 20]: 2 µM; inhibition at 10 µM [7]: 65%; IC50 (in vitro [8]): > 20000 nM
